Data from patent US8715678B2, “Method for inhibiting the formation of SET1 family core complexes” (Syracuse University, priority 2008, dated 2014).
Ends that are not written are not given here.

Assays:
[1] = system: mouse embryonic carcinoma cell nuclei; assay: Fluorescence localization and nuclear phenotype in mouse embryonic carcinoma cells; assay type: cell-based
[2] = system: MLL1-dependent Hox genes (e.g. Hoxc8 and Hoxa9); assay: Expression of MLL1-dependent Hox genes in HEK293T cells; assay type: cell-based; conditions: 20 micrograms per milliliter, 24 hours
Text: In another embodiment, an inhibitor peptide with a cell penetration sequence is used to treat MLL1-associated leukemia. […] The addition of the inhibitor peptides disclosed herein can help control the degree of upregulation and thereby serve as a treatment for leukemia. Experiments have shown the degree of expression of MLL1-dependent Hox genes (e.g. Hoxc8 and Hoxa9) are decreased in the presence of inhibitor peptide SEQ ID NO. 34 in HEK293T cells treated with 20 micrograms per milliliter of the inhibitor peptide for 24 hours.

[3] = system: H3K4 trimethylation / H3K27 trimethylation of H3; assay: Western blot of H3K4 trimethylation to H3K27 trimethylation ratio in HEK293T cells; assay type: cell-based; conditions: 20 micrograms per milliliter, 24 hours, normalized to total histone H3
Protocol: HEK293T cells were treated with 20 micrograms per milliliter of the inhibitor peptide (SEQ ID NO. 34) for 24 hours and immune-blotted using antibodies specific for H3K4 trimethylation, H3K27 trimethylation, and histone H3 (to provide for normalization). Western blots were quantified based on band intensity using image analysis software and normalized as a function of total histone H3. Tubulin was used as a loading control and its level remained constant between the two samples.

WDR5 = target: T1, WDR5 (Homo sapiens, UniProt P61964); assay: Binding of N-acetylated three residue peptide (method not given); conditions: acetylated on the N-terminus
T1 construct: pMCGS7 plasmids encoding full-length WDR5 as N-terminal His6 fusions were obtained; His6 (N); made in house; host or cells: Escherichia coli (Rosetta II, Novagen)

Row | Substance | localization of fluorescent signature ([1]; mouse embryonic carcinoma cells) | effect on metaphase cells and nuclear shape ([1]; within 48 hours of treatment) | degree of expression of MLL1-dependent Hox genes (Hoxc8 and Hoxa9) [2] | ratio of H3K4 trimethylation to H3K27 trimethylation [3] | binding of three residue peptide (WDR5)
1 | Ac-VNPTGCARSEPK-Ahx-K(FTIC)-GRKKRRQRRRAP-CONH2 [SEQ ID NO. 34] | rapidly localized to eurchromatic regions of mouse embryonic carcinoma cell nuclei | metaphase cells are absent and many cell nuclei have adopted altered shapes | decreased | lowering of the ratio of H3K4 to H3K27 | 
2 | acART (Ac-Ala-Arg-Thr) [three residue peptide (ARX2)] |  |  |  |  | capable of binding
